Source: the supplement of paper PMC10883282
± gives the standard deviation of the averaged measurements.

Tested on: HS729
Assay: relative viability vs DMSO control (72 h) (fraction); higher = more viable cells
Outline: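 Sarcoma cell lines were seeded in 384-well plates at densities chosen for 80–90% confluence, then 24 h later given 2.5 µl of serially diluted compound drawn from source plates spanning 10 mM to 0.0002 mM. They were held 72 h at 37 °C, 5% CO2, with 0.1% DMSO vehicle and a 5 µM positive control included. Relative viability was read with ATPLite as percent growth and averaged over up to triplicate wells. Rescaling placed full at 1 and none at 0.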

`CN1CCN(c2ccc3nc(-c4c(N)c5c(F)cccc5[nH]c4=O)[nH]c3c2)CC1` [Dovitinib] gave a relative viability (0.00017 µM) of 1.09 ± 0.058, a relative viability (0.00051 µM) of 1.03 ± 0.036 and a relative viability (0.00152 µM) of 1.09 ± 0.027. The relative viability (0.00457 µM) was 1.04 ± 0.061, the relative viability (0.01372 µM) was 1.05 ± 0.079 and the relative viability (0.04115 µM) was 1 ± 0.026. For the same compound, the relative viability (0.1235 µM) was 0.968 ± 0.083, the relative viability (0.3704 µM) was 0.832 ± 0.059 and the relative viability (1.111 µM) was 0.62 ± 0.025. It also gave a relative viability (3.333 µM) of 0.41 ± 0.066 and a relative viability (10 µM) of 0.264 ± 0.034.
`COc1cc2c(cc1O)CCN[C@]21CS[C@@H]2c3c(OC(C)=O)c(C)c4c(c3[C@H](COC1=O)N1[C@@H]2[C@H]2c3c(cc(C)c(OC)c3O)C[C@@H]([C@@H]1O)N2C)OCO4` [Trabectedin] showed a relative viability (2 pM) of 0.999 ± 0.056, a relative viability (5 pM) of 0.952 ± 0.019 and a relative viability (15 pM) of 0.957 ± 0.067. The relative viability (50 pM) was 0.859 ± 0.044, the relative viability (0.00014 µM) was 0.557 ± 0.15 and the relative viability (0.00041 µM) was 0.137 ± 0.14. The relative viability (0.0012 µM) was 0.183 ± 0.041, the relative viability (0.0037 µM) was 0.166 ± 0.0097 and the relative viability (0.011 µM) was 0.124 ± 0.0083. For the same compound, the relative viability (200 fM) was 1.02 ± 0.048 and the relative viability (600 fM) was 1.05 ± 0.034.
Work on `C=CC(=O)Nc1cccc(Oc2nc(Nc3ccc(N4CCN(C)CC4)cc3)nc3ccsc23)c1` [Olmutinib] yielded a relative viability (0.00017 µM) of 1.02 ± 0.095, a relative viability (0.00051 µM) of 1.03 ± 0.1 and a relative viability (0.00152 µM) of 0.996 ± 0.094. For the same compound, the relative viability (0.00457 µM) was 0.988 ± 0.07, the relative viability (0.01372 µM) was 0.922 ± 0.05 and the relative viability (0.04115 µM) was 0.968 ± 0.11. It also gave a relative viability (0.1235 µM) of 0.958 ± 0.093, a relative viability (0.3704 µM) of 0.904 ± 0.097 and a relative viability (1.111 µM) of 0.925 ± 0.079. The relative viability (3.333 µM) was 0.887 ± 0.051 and the relative viability (10 µM) was 0.713 ± 0.059.
`CC(C)NC(=O)C1CCC(n2c(NC(=O)c3ccc(F)cc3)nc3ccc(CN4CCC(C(C)(C)O)CC4)cc32)CC1` (stereo not given) [Belizatinib] showed a relative viability (0.00017 µM) of 0.93 ± 0.018, a relative viability (0.00051 µM) of 0.952 ± 0.042 and a relative viability (0.00152 µM) of 0.967 ± 0.057. It also gave a relative viability (0.00457 µM) of 0.945 ± 0.027, a relative viability (0.01372 µM) of 0.949 ± 0.061 and a relative viability (0.04115 µM) of 0.9059 ± 0.0065. The relative viability (0.1235 µM) was 0.836 ± 0.043, the relative viability (0.3704 µM) was 0.695 ± 0.041 and the relative viability (1.111 µM) was 0.602 ± 0.04. The relative viability (3.333 µM) was 0.526 ± 0.02 and the relative viability (10 µM) was 0.42 ± 0.053.
`CCN1CCN(Cc2ccc(Nc3ncc(F)c(-c4cc(F)c5nc(C)n(C(C)C)c5c4)n3)nc2)CC1` [Abemaciclib] gave a relative viability (0.00017 µM) of 0.912 ± 0.041, a relative viability (0.00051 µM) of 0.923 ± 0.014 and a relative viability (0.00152 µM) of 0.892 ± 0.057. It also gave a relative viability (0.00457 µM) of 0.862 ± 0.033, a relative viability (0.01372 µM) of 0.9097 ± 0.0087 and a relative viability (0.04115 µM) of 0.865 ± 0.029. The relative viability (0.1235 µM) was 0.818 ± 0.029, the relative viability (0.3704 µM) was 0.854 ± 0.087 and the relative viability (1.111 µM) was 0.873 ± 0.025. It also gave a relative viability (3.333 µM) of 0.886 ± 0.021 and a relative viability (10 µM) of 0.885 ± 0.011.
For `COc1c(OCCCN2CCOCC2)ccc2c1N=C(NC(=O)c1cnc(N)nc1)N1CCN=C21` [Copanlisib], the relative viability (0.00017 µM) was 1.05 ± 0.04, the relative viability (0.00051 µM) was 0.906 ± 0.03 and the relative viability (0.00152 µM) was 0.919 ± 0.027. For the same compound, the relative viability (0.00457 µM) was 0.701 ± 0.12, the relative viability (0.01372 µM) was 0.688 ± 0.028 and the relative viability (0.04115 µM) was 0.6016 ± 0.0023. It also gave a relative viability (0.1235 µM) of 0.483 ± 0.028, a relative viability (0.3704 µM) of 0.439 ± 0.045 and a relative viability (1.111 µM) of 0.324 ± 0.035. The relative viability (3.333 µM) was 0.306 ± 0.022 and the relative viability (10 µM) was 0.255 ± 0.015.
With `Cc1nc(-c2cn3c(n2)-c2ccc(-c4cnn(C(C)(C)C(N)=O)c4)cc2OCC3)n(C(C)C)n1` [Taselisib] the relative viability (0.00017 µM) was 0.913 ± 0.018, the relative viability (0.00051 µM) was 0.935 ± 0.041 and the relative viability (0.00152 µM) was 0.893 ± 0.045. For the same compound, the relative viability (0.00457 µM) was 0.891 ± 0.076, the relative viability (0.01372 µM) was 0.798 ± 0.066 and the relative viability (0.04115 µM) was 0.756 ± 0.062. The relative viability (0.1235 µM) was 0.644 ± 0.053, the relative viability (0.3704 µM) was 0.629 ± 0.019 and the relative viability (1.111 µM) was 0.5241 ± 0.0042. The relative viability (3.333 µM) was 0.487 ± 0.013 and the relative viability (10 µM) was 0.429 ± 0.014.
In the case of `O=C(Cc1ccc(-c2ccc(OCCN3CCOCC3)cc2)cn1)NCc1ccccc1` [KX2-391], the relative viability (0.00017 µM) is reported as 1.09 ± 0.061, the relative viability (0.00051 µM) is reported as 1.02 ± 0.096 and the relative viability (0.00152 µM) is reported as 0.943 ± 0.046. The relative viability (0.00457 µM) was 0.959 ± 0.069, the relative viability (0.01372 µM) was 0.912 ± 0.019 and the relative viability (0.04115 µM) was 0.792 ± 0.064. The relative viability (0.1235 µM) was 0.623 ± 0.018, the relative viability (0.3704 µM) was 0.562 ± 0.024 and the relative viability (1.111 µM) was 0.521 ± 0.029. For the same compound, the relative viability (3.333 µM) was 0.501 ± 0.048 and the relative viability (10 µM) was 0.475 ± 0.019.
For `C[C@@H]1COCCN1c1cc(-c2ccnn2C)c2ccnc(-c3ccn[nH]3)c2n1`, the relative viability (0.00017 µM) was 0.945 ± 0.068, the relative viability (0.00051 µM) was 0.894 ± 0.045 and the relative viability (0.00152 µM) was 0.92 ± 0.071. The relative viability (0.00457 µM) was 0.873 ± 0.041, the relative viability (0.01372 µM) was 0.849 ± 0.036 and the relative viability (0.04115 µM) was 0.804 ± 0.04. It also gave a relative viability (0.1235 µM) of 0.681 ± 0.019, a relative viability (0.3704 µM) of 0.634 ± 0.018 and a relative viability (1.111 µM) of 0.469 ± 0.017. For the same compound, the relative viability (3.333 µM) was 0.403 ± 0.033 and the relative viability (10 µM) was 0.373 ± 0.012.
`Cc1cnc(Nc2ccc(OCCN3CCCC3)cc2)nc1Nc1cccc(S(=O)(=O)NC(C)(C)C)c1` [Fedratinib] was tested, and the relative viability (0.00017 µM) was 1.03 ± 0.038, the relative viability (0.00051 µM) was 0.948 ± 0.033 and the relative viability (0.00152 µM) was 0.99 ± 0.02. The relative viability (0.00457 µM) was 0.928 ± 0.047, the relative viability (0.01372 µM) was 0.924 ± 0.05 and the relative viability (0.04115 µM) was 0.888 ± 0.021. The relative viability (0.1235 µM) was 0.805 ± 0.033, the relative viability (0.3704 µM) was 0.649 ± 0.026 and the relative viability (1.111 µM) was 0.497 ± 0.0061. For the same compound, the relative viability (3.333 µM) was 0.263 ± 0.025 and the relative viability (10 µM) was 0.0101 ± 0.0019.
